This is an account of results in patent publication US20220023386A1, “METHOD FOR THE TREATMENT OR PREVENTION OF OSTEOARTHRITIS” (Chondropeptix B.V., priority 2016, published 2022).

What all share (assay type): cell-based, human
For assay [1], the system named is OA articular chondrocytes. As to the kind of experiment: Expression of OA chondrocyte phenotype marker genes by RT-qPCR after peptide exposure. Details: key: [+] denotes a significantly increased expression of chondrogenic marker BAPX1/NKX3.2 or a decreased expression of OA chondrocyte phenotypic markers ALP, MMP13, ADAMTS5, COX2, COL10A and RUNX2 in OA articular chondrocytes, in comparison to untreated OA articular chondrocytes.; [−] denotes the absence of a significant effort or a significantly decreased expression of chondrogenic marker BAPX1/NKX3.2 or an increased expression of OA chondrocyte phenotypic markers ALP, MMP13, ADAMTS5, COX2, COL10A and RUNX2 in OA articular chondrocytes, in comparison to untreated OA articular chondrocytes. The conditions noted are these: Table 2 (FIGS. 2-8), peptide 10 nM, 24 hours, vs untreated OA articular chondrocytes. On the procedure: (§1) The action of 20-mer peptides (10 nM) of SEQ ID NO: 2-15 (peptides with 1 amino acids intervals (19 amino acid overlap)) and SEQ ID NO:49 on the expression of the indicated genes was determined on a validated pool of passage 2 OA human articular chondrocytes (n=18) and compared to full-length recombinant BMP-7 (1 nM). Samples were harvested after 24 hours and analyzed for indicated genes by RT-qPCR (corrected for 28S rRNA expression and relative to control conditions (no peptide exposure)). In the graphs, numbers on the x-axis represent individual peptides according to their SEQ ID NO:, error bars represent mean±SEM, statistical differences were calculated (one-way ANOVA with bonferroni correction) to control condition. *=p<0.05 lower than control condition for COL10A1, ALP, RUNX2, COX-2, MMP13 and ADAMTS5 and higher than control condition for BAPX1/NKX3.2. Random peptide is a peptide according to SEQ ID NO: 49 with amino acid sequence […].

The subject of assay [2] is OA articular chondrocytes. The assay is described as above. Details: key to ADAMTS5 expression: [+] denotes a significantly increased expression of chondrogenic marker BAPX1/NKX3.2 or a decreased expression of OA chondrocyte phenotypic markers ALP, MMP13, ADAMTS5, COX2, COL10A and RUNX2 in OA articular chondrocytes, in comparison to untreated OA articular chondrocytes.; [−] denotes the absence of a significant effort or a significantly decreased expression of chondrogenic marker BAPX1/NKX3.2 or an increased expression of OA chondrocyte phenotypic markers ALP, MMP13, ADAMTS5, COX2, COL10A and RUNX2 in OA articular chondrocytes, in comparison to untreated OA articular chondrocytes.

Assay [3] deals with OA articular chondrocytes. Described as above. Further details: key: [+] denotes a significantly increased expression of chondrogenic marker BAPX1/NKX3.2 or a decreased expression of OA chondrocyte phenotypic markers ALP, MMP13, ADAMTS5, COX2, COL10A and RUNX2 in OA articular chondrocytes, in comparison to untreated OA articular chondrocytes.; [−] denotes the absence of a significant effort or a significantly decreased expression of chondrogenic marker BAPX1/NKX3.2 or an increased expression of OA chondrocyte phenotypic markers ALP, MMP13, ADAMTS5, COX2, COL10A and RUNX2 in OA articular chondrocytes, in comparison to untreated OA articular chondrocytes. Conditions: vs untreated OA articular chondrocytes.

Assay [4] deals with OA articular chondrocytes. Described as above. Details: key: [—] denotes the absence of a significant effect or a significantly decreased expression of chondrogenic marker BAPX1/NKX3.2 or an increased expression of OA chondrocyte phenotypic markers ALP, MMP13, ADAMTS5, COX2, COL10A and RUNX2 in OA articular chondrocytes, in comparison to untreated OA articular chondrocyts. Conditions: Table 1, 20-mer peptides with native cysteines; vs untreated OA articular chondrocytes. The method, then:
as §1

Assay [5] deals with OA articular chondrocytes. The description is as above. The conditions noted are these: Table 1, 20-mer peptides with native cysteines; vs untreated OA articular chondrocytes. Details: key: [—] denotes the absence of a significant effect or a significantly decreased expression of chondrogenic marker BAPX1/NKX3.2 or an increased expression of OA chondrocyte phenotypic markers ALP, MMP13, ADAMTS5, COX2, COL10A and RUNX2 in OA articular chondrocytes, in comparison to untreated OA articular chondrocyts. The source holds these as a separate data set.

The next assay deals with Cartilage explants. As to the kind of experiment: Safranin-O staining of glycosaminoglycans in cartilage explants. The conditions noted are these: 14 days; BMP-7 1 nM, SEQ ID NO: 8 10 nM; 2 patients. On the procedure:
Cartilage explants obtained from 2 patients were cultured for 14 days in the presence of BMP-7 (1 nM) or BMP-7 mimicking peptide […] (SEQ ID NO: 8) at 10 nM. Glycosaminoglycans (GAGs), an important component of the extracellular matrix (ECM), were stained with Safranin-O (in red) and other tissues are counterstained with Fast green (in green/blue).

Assay [6] deals with Cartilage explants from OA patient's knee cartilage. Put plainly: PGE2 levels via ELISA in cartilage explants. Conditions: 14 days; BMP-7 1 nM, peptides 10 nM. The method, then:
Cartilage explants of 3 mm^2 were taken from OA patient's knee cartilage (n=6) and treated with BMP-7 (1 nM), with peptide […] (SEQ ID NO: 8) at 10 nM or a scrambled irrelevant control peptide (10 nM) for 14 days. Prostaglandin E2 (PGE2) levels, a pro-hypertrophic factor, were determined via an ELISA.

For assay [7], the system named is Synovial tissue, Hoffa's fat pad tissue and meniscus tissue samples from OA patients. As to the kind of experiment: PGE2 levels via ELISA in synovial, Hoffa's fat pad and meniscus tissue samples. Conditions: 24 h; BMP-7 1 nM, peptides 10 nM. On the procedure:
Synovial tissue samples from OA patients (n=6) were treated with BMP-7 (1 nM), with peptide […] (SEQ ID NO: 8) at 10 nM or a scrambled irrelevant control peptide (10 nM) for 24 h. PGE2 levels were determined via an ELISA.
Hoffa's fat pad tissue samples from OA patients (n=6) were treated with BMP-7 (1 nM) with peptide […] (SEQ ID NO: 8) at 10 nM or a scrambled irrelevant control peptide (10 nM) for 24 h. PGE2 levels were determined via an ELISA.
Meniscus tissue samples from OA patients (n=6) were treated with BMP-7 (1 nM) with peptide […] (SEQ ID NO: 8) at 10 nM or a scrambled irrelevant control peptide (10 nM) for 24 h. PGE2 levels were determined via an ELISA.
(In general: An ELISA detects its analyte on a solid surface through an enzyme-linked reagent.)

In assay [8] the test system is Isolated chondrocytes from OA patients. As to the kind of experiment: Treatment of isolated chondrocytes from OA patients, gene expression via qRT-PCR. Conditions: 1 nM, 24 h, n=6. On the procedure:
Isolated chondrocytes from OA patients (n=6) were treated with BMP-7 (1 nM) or the 12-mer peptide according to SEQ ID NO: 16 (1 nM) for 24 h. Pro-chondrogenic (FIG. 9A) and hypertrophic (FIGS. 9B, 9C and 9D) gene expression was determined via qRT-PCR and normalized for 28S rRNA levels.
(In qPCR the cycle at which signal appears reflects the starting amount.)

Assay [9] has as its system cartilage explants from OA patient's knee articular cartilage. Put plainly: Treatment of cartilage explants, hypertrophic gene expression via qRT-PCR. The conditions noted are these: BMP-7 1 nM, SEQ ID NO: 16 10 nM, 24 h. On the procedure: 4 mm2 cartilage explants were taken from non-lesion areas of OA patient's knee articular cartilage (n=5) and randomly assigned to different experimental treatment conditions (4 explants per treatment group). After a 24 h equilibration period the explants were treated with BMP-7 (1 nM) or the 12-mer peptide according to SEQ ID NO: 16 (10 nM) for 24 h. Hypertrophic gene expression was determined via qRT-PCR and normalized for 28S rRNA levels. After treatment with BMP-7 or the 12 mer we observed a downregulation of pro-hypertrophic genes, such as Col10a1 (FIG. 10A) and MMP13 (FIG. 10B).

The mark [10] stands for this setting: Table 3, N- and C-terminally truncated peptides.

For the substance “16 (YSEGESAFPLNS; homo sapiens) [compound 16]”, in assay [1], the ADAMTS5 expression result is on record as “+”, the ALP expression result was “+”, the BAPX1/NKX3.2 expression entry is “+” and the COL10A expression entry is “+”. Moreover, in [1], the COX-2 expression result is recorded as “+” and the RUNX2 expression entry is on record as “+”. The ADAMTS5 expression entry in [2] (Table 3, N- and C-terminally truncated peptides, vs untreated OA articular chondrocytes) is “+”. In addition, the MMP13 expression result in [3] (Table 2 (FIGS. 2-8), peptide 10 nM, 24 hours) was “+”. In assay [3] (setting [10]), the ALP expression entry is reported as “+”, the BAPX1/NKX3.2 expression entry was “+”, the COL10A expression entry is on record as “+” and the COX-2 expression result was “+”. Besides, the RUNX2 expression entry in assay [3] (setting [10]) is listed as “+”.

Turning to “41 (FPLNSYMNATNHAIVQTLVH; homo sapiens) [compound 41]”, the ADAMTS5 expression result in [4] was “—”. Besides, in [5], the ALP expression result is on record as “—”, the BAPX1/NKX3.2 expression entry is given as “—”, the COL10A expression result was “—” and the COX-2 expression entry is “—”. Also, in [5], the MMP13 expression entry is listed as “—” and the RUNX2 expression entry is on record as “—”.

As for “44 (SSNVILKKYRNMVVRACGCH; homo sapiens) [compound 44]”, the ADAMTS5 expression result in assay [4] is “—”. Besides, in assay [5], the ALP expression entry is “—”, the BAPX1/NKX3.2 expression result is “—”, the COL10A expression entry is “—” and the COX-2 expression result was “—”. Besides, in assay [5], the MMP13 expression result was “—” and the RUNX2 expression entry was “—”.

As for “42 (VHFINPETVPKPCCAPTQLN; homo sapiens) [compound 42]”, in assay [4], the ADAMTS5 expression entry is recorded as “—”. Moreover, in assay [5], the ALP expression entry is reported as “—”, the BAPX1/NKX3.2 expression result was “—”, the COL10A expression result was “—” and the COX-2 expression result is recorded as “—”. Moreover, in [5], the MMP13 expression entry is recorded as “—” and the RUNX2 expression result is recorded as “—”.

As for “40 (WIIAPEGYAAYYCEGECAFP; homo sapiens) [compound 40]”, in assay [4], the ADAMTS5 expression entry is on record as “—”. Besides, in assay [5], the ALP expression entry is listed as “—”, the BAPX1/NKX3.2 expression entry was “—”, the COL10A expression entry is “—” and the COX-2 expression entry is recorded as “—”. Also, in assay [5], the MMP13 expression entry is reported as “—” and the RUNX2 expression entry is on record as “—”.

As for “39 (ACKKHELYVSFRDLGWQDWI; homo sapiens) [compound 39]”, in assay [4], the ADAMTS5 expression result was “—”. In assay [5], the ALP expression result was “—”, the BAPX1/NKX3.2 expression result is recorded as “—”, the COL10A expression entry is “—” and the COX-2 expression entry was “—”. For the same substance, in assay [5], the MMP13 expression result is reported as “—” and the RUNX2 expression entry was “—”.

On to “43 (LNAISVLYFDDSSNVILKKY; homo sapiens) [compound 43]”, for which the ADAMTS5 expression entry in assay [4] is recorded as “—”. In assay [5], the ALP expression entry is “—”, the BAPX1/NKX3.2 expression entry is “—”, the COL10A expression entry was “—” and the COX-2 expression entry is reported as “—”. Also, in [5], the MMP13 expression result is “—” and the RUNX2 expression result is “—”.

Turning to “GYAAYYSEGESAFPLNSYMN (homo sapiens) [SEQ ID NO: 8]”, the “Safranin-O intensity (GAGs) compared to control” value with Cartilage explants is reported as “increased Safranin-O intensity”. For the same substance, the “PGE2 levels in the cartilage” value in [6] is on record as “reduce PGE2 levels”. Besides, the “PGE2 levels in the surrounding tissues (synovial, Hoffa's fat pad, meniscus)” value in [7] is recorded as “reduce PGE2 levels”. The “suppression of the OA chondrocyte phenotype” value in [2] (independent of the tested concentration (1000, 100, 10 and 1 nM were tested)) was “efficiently suppressed”.

In the case of “YSEGESAFPLNS (homo sapiens) [SEQ ID NO: 16]”, in assay [8], the “COL10A1 gene expression (pro-hypertrophic)” value is given as “downregulation”, the “COX-2 gene expression (pro-hypertrophic)” value was “downregulation”, the “Col2a1 gene expression (pro-chondrogenic)” value is “upregulation” and the “RUNX2 gene expression (pro-hypertrophic)” value is “downregulation”. Also, in [9], the Col10a1 gene expression result was “downregulation” and the MMP13 gene expression result is given as “downregulation”.

For “38 (EALRMANVAENSSSDQRQAC; homo sapiens) [compound 38]”, the ADAMTS5 expression result in assay [4] is reported as “—”. Besides, in [5], the ALP expression entry is on record as “—”, the BAPX1/NKX3.2 expression entry is “—”, the COL10A expression entry was “—” and the COX-2 expression result is listed as “—”. Besides, in [5], the MMP13 expression result is recorded as “—” and the RUNX2 expression result is listed as “—”.
